Measurements: paper PMC8151276, “An Integrated Approach toward NanoBRET Tracers for Analysis of GPCR Ligand Engagement” (Molecules, 2021)

Tests used:
Format in all cases: binding
FZD7 = molecular target: T1, FZD7 (Homo sapiens, UniProt O75084); experiment: NanoBRET screen HiBiT-FZD7 in HEK293; conditions: FZD7
T1 construct: purchased Promega (in-house HiBiT-GPCR construct library, NanoBRET)
Experimental: (§1) Each tracer candidate was screened across the entire library of HiBiT-GPCR constructs using NanoBRET as the detection modality. As depicted in Figure 4A, the specificity of interactions was evaluated through decrease in BRET due to competitive displacement of a bound tracer by excess parental compound. Each tracer was analyzed for binding to each HiBiT-GPCR fusion in the absence and in the presence of competing parental compound. Briefly, HEK293 cells were transfected with HiBiT-GPCR constructs diluted into promoterless DNA to reduce expression and maximize translocation to the cell surface. Each tracer candidate was then screened at concentrations of 1 μM and 0.1 μM across cells expressing these fusions. Cells were treated for 1.5 h with tracer either alone or in the presence of 20 μM competing parental compound (i.e., control). BRET was measured upon addition of purified LgBiT and subsequent complementation with HiBiT genetically fused to a GPCR. The specificity of interactions was assessed through a decrease in BRET signal due to competitive displacement of the bound tracer. To further gauge the robustness of these interactions, the fold response over the control (i.e., BRETtracer/BRETcontrol) was calculated. We chose a 1.5-fold response, which translates to ≥7-fold signal over noise as the minimal threshold required to score an interaction as positive. […]. Below we highlight the screening results obtained for our exemplary fluorescent tracers based on Clozapine, Amitriptyline and AZD1283.
(§2) HiBiT-GPCR DNA constructs were diluted in 10 mM Tris pH 8 to a final concentration of 0.01 μg/μL, arrayed in 96-well plates and stored at −20 °C. For transfection, HEK293 cells were suspended in Opti-MEM (without phenol red) supplemented with 2% fetal bovine serum (Seradigm) and 100 units/mL penicillin–streptomycin (Gibco) at a final concentration of 220,000 cells/mL and dispensed into white 96-well plates at 90 μL/well. Subsequent transfections and screens were carried using an Agilent Bravo Automated Liquid Handling Platform. First, the 96-well HiBiT DNA arrays were diluted 25-fold in Opti-MEM (without serum or phenol red) to a final concentration of 0.0004 μg/μL and 20 μL of the diluted DNAs were transferred into new 96-well plates. Next, promoterless carrier DNA (1 μg/μL) was diluted 25-fold (0.04 μg/μL) and then dispensed into the diluted arrays at 20 μL/well. Following brief mixing, Viafect transfection reagent (Promega) diluted 16-fold into Opti-MEM was dispensed into the plates at 40 μL/well. After mixing by pipetting, plates were incubated for 10 min on the pipetting station deck. The DNA-transfection reagent complexes were then added to plates containing cells. To facilitate the screen, 10 μL of DNA-transfection reagent complexes were added in duplicates to the top 4 and bottom 4 rows, resulting in two identical 48-well arrays per plate. Plates with transfected cells were incubated for 18–20 h at 37 °C/5% CO2. A screen of each tracer across the entire library using two different concentrations requires duplicate plates of transfected cells. Depending on the number of tracers being screened, transfections can be scaled up using the same ratios. The next day, for each tracer, four 20× screening solutions in tracer dilution buffer (Promega) were prepared: two duplicates at final concentration of 20 μM and two duplicates at a final concentration of 2 μM. A competing unmodified compound was added to one of each duplicate at a final concentration of 400 μM. The four resulting solutions were diluted 4-fold in Opti-MEM without serum or phenol red to generate 5× solutions (5 µM and 0.5 µM tracer +/− 100 μM competing compound). To screen the library, a BioTek MultiFlo FX liquid dispenser was used to dispense 22.5 µL of tracer solution to the top 4 rows and 22.5 µL tracer + competing compound solution to the 4 bottom rows. Plates were briefly mixed on an orbital shaker and incubated for 1.5 h at room temperature. […]

F2RL3 = molecular target: T2, F2RL3 (Homo sapiens, UniProt Q96RI0); experiment: NanoBRET screen HiBiT-F2RL3 in HEK293; conditions: F2RL3
T2 construct: purchased Promega (in-house HiBiT-GPCR construct library, NanoBRET)
T2 sequence (Q96RI0 18-385): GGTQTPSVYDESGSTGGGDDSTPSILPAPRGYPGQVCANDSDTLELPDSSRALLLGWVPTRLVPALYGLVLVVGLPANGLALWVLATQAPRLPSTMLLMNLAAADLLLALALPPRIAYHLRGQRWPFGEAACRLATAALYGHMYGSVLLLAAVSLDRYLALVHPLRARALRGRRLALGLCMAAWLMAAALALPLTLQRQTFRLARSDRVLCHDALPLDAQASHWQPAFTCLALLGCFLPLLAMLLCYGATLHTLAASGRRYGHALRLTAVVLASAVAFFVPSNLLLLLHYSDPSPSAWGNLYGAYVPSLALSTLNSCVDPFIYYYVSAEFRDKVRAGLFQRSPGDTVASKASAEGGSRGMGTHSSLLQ
Experimental: as §1, §2

P2RY13 = molecular target: T3, P2RY13 (Homo sapiens, UniProt Q9BPV8); experiment: NanoBRET screen HiBiT-P2RY13 in HEK293; conditions: P2RY13
T3 construct: purchased Promega (in-house HiBiT-GPCR construct library, NanoBRET)
T3 sequence (Q9BPV8 1-354): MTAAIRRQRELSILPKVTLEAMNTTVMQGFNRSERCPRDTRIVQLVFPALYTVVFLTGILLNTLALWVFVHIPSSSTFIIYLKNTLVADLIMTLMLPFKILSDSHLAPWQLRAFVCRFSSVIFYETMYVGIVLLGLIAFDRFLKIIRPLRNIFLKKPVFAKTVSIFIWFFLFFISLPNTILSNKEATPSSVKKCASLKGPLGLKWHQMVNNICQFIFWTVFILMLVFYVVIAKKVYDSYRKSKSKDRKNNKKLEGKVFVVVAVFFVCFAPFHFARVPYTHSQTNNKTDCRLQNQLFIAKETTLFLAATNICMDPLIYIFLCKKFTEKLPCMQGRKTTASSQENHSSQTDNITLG
Experimental: as §1, §2

OPRL1 = molecular target: T4, OPRL1 (Homo sapiens, UniProt P41146); experiment: NanoBRET screen HiBiT-OPRL1 in HEK293; conditions: OPRL1
T4 construct: purchased Promega (in-house HiBiT-GPCR construct library, NanoBRET)
T4 sequence (P41146 whole entry): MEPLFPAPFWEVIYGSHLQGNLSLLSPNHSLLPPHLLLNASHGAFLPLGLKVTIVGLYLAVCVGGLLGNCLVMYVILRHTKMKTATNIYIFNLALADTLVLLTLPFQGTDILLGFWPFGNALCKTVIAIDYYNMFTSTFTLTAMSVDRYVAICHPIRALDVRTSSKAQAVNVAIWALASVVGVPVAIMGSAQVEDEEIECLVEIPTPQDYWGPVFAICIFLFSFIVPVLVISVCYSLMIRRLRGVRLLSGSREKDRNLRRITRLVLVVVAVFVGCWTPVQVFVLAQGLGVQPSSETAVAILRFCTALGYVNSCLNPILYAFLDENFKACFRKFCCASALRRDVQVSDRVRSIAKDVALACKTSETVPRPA
Experimental: as §1, §2

FPR1 = molecular target: T5, FPR1 (Homo sapiens, UniProt P21462); experiment: NanoBRET screen HiBiT-FPR1 in HEK293; conditions: FPR1
T5 construct: purchased Promega (in-house HiBiT-GPCR construct library, NanoBRET)
T5 sequence (P21462 1-350): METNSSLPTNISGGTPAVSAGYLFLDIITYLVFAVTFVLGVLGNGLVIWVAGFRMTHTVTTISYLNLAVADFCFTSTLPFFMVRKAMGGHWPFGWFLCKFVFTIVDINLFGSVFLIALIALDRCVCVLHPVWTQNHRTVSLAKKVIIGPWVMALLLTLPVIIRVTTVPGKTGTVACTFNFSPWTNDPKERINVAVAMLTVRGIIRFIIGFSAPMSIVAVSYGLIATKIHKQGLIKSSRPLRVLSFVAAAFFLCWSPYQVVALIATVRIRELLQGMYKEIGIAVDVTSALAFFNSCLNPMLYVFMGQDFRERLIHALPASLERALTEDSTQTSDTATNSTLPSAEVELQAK
Experimental: as §1, §2

Structure (SMILES) | NanoBRET Fold Response (FZD7; 0.1μM tracer) | NanoBRET Fold Response (FZD7; 1μM tracer) | NanoBRET Fold Response (F2RL3; 0.1μM tracer) | NanoBRET Fold Response (F2RL3; 1μM tracer) | NanoBRET Fold Response (P2RY13; 0.1μM tracer) | NanoBRET Fold Response (P2RY13; 1μM tracer) | NanoBRET Fold Response (OPRL1; 0.1μM tracer) | NanoBRET Fold Response (OPRL1; 1μM tracer) | NanoBRET Fold Response (FPR1; 0.1μM tracer) | NanoBRET Fold Response (FPR1; 1μM tracer) | NanoBRET Fold Response (FZD7; tracer 0.1μM) | NanoBRET Fold Response (FZD7; tracer 1μM) | NanoBRET Fold Response (F2RL3; tracer 0.1μM) | NanoBRET Fold Response (F2RL3; tracer 1μM) | NanoBRET Fold Response (P2RY13; tracer 0.1μM) | NanoBRET Fold Response (P2RY13; tracer 1μM) | NanoBRET Fold Response (OPRL1; tracer 0.1μM) | NanoBRET Fold Response (OPRL1; tracer 1μM) | NanoBRET Fold Response (FPR1; tracer 0.1μM) | NanoBRET Fold Response (FPR1; tracer 1μM)
CN1CCN(C2=Nc3cc(Cl)ccc3N(CC(=O)NCCOCCOCCOCCOCCNC(=O)CCc3ccc4n3[B-](F)(F)[N+]3=C(c5ccc[nH]5)C=CC3=C4)c3ccccc32)CC1 [Clozapine-c-2-NB590] | 0.98 | 1.00 | 1.02 | 0.99 | 0.99 | 0.99 | 0.98 | 0.99 | 0.98 | 1.04 | – | – | – | – | – | – | – | – | – | –
O=C(CCOCCOCCOCCOCCNC(=O)CCc1ccc2n1[B-](F)(F)[N+]1=C(c3ccc[nH]3)C=CC1=C2)NCCCN1CCN(C2=Nc3ccccc3Oc3ccc(Cl)cc32)CC1 [Loxapine-a-2-NB590] | – | – | – | – | – | – | – | – | – | – | 1.03 | 1.05 | 1.00 | 1.02 | 0.92 | 0.96 | 1.00 | 0.89 | 0.99 | 1.10
COc1ccccc1N1CCN(CCCCN2C(=O)c3ccc(CNC(=O)CCOCCOCCOCCOCCNC(=O)CCc4ccc5n4[B-](F)(F)[N+]4=C(c6ccc[nH]6)C=CC4=C5)cc3C2=O)CC1 [NAN-190-2-NB590] | – | – | – | – | – | – | – | – | – | – | 1.00 | 1.03 | 0.99 | 1.01 | 0.97 | 1.04 | 0.97 | – | 1.09 | 1.04
COc1ccccc1N1CCN(CCCCN2C(=O)c3ccc(CNC(=O)CCOCCNC(=O)c4ccc(CNC(=O)CCc5ccc6n5[B-](F)(F)[N+]5=C(c7ccc[nH]7)C=CC5=C6)cc4)cc3C2=O)CC1 [NAN-190-3-NB590] | – | – | – | – | – | – | – | – | – | – | 0.94 | 1.27 | 1.15 | 0.99 | 1.02 | 0.92 | 1.08 | 1.41 | 0.95 | 1.09
